Measured values as given in patent US20040071650A1, “Use of cyclosporin 7-thioamide derivatives for hair growth” (priority 2000, published 2004).
Entries after “also recorded” stand apart in the source; their conditions may differ.

Test system: mouse's back
Test: not given
Details: comparative experiments on mouse's back; cited from earlier work

Substance | hair regrowth effect relative to minoxidil
Cyclosporin A [reference compound] | about 100 times

Test system: C57BL/6 mice (female)
Test: Test of hair regrowth effects of 7-thioamide derivatives of cyclosporin on shaved backs of mice
Details: C57BL/6 female mice, 100 μl (0.1% w/v) applied on hair removed back once a day for 30 days; vehicle 32
Description: C57BL/6 mice (female), 42˜49 days old, were used in this test.
First of all, mice were removed of hair on their backs using an electric shaver, and weighed. The mice were divided into several groups with weights equally distributed. After one day of adaptation, cyclosporin A and cyclosporin derivatives were applied over the hair removed area once a day per each individual for 30 days. Here, the applied amount of cyclosporin A and derivatives thereof was 100 μl (0.1% w/v). The degree of hair growth were observed by naked eye. The ratio of the area where hairs newly grew to the hair removed area were determined.

Substance | Area ratio (ratio of the area where hairs newly grew to the hair removed area) [%]
Cyclosporin C 7-thioamide ([Thr]^2-[^7ψ^8 CS—NH] cyclosporin) | 87
Cyclosporin A [reference compound] | 87
Cyclosporin G 7-thioamide ([Nva]^2-[^7ψ^8 CS—NH] cyclosporin) | 88
Cyclosporin D 7-thioamide ([Val]^2-[^7ψ^8 CS—NH] cyclosporin) | 79
Cyclosporin B 7-thioamide ([Ala]^2-[^7ψ^8 CS—NH] cyclosporin) | 81

Same assay, conditions: hair regrowth evaluation of synthesized thioamide derivatives

Substance | hair regrowth effect (in words)
Cyclosporin A 4,7-bis(thioamide) [cyclosporin 4,7-bis(tioamide), reference compound] | not all of those derivatives have hair regrowth effect, but only cyclosporin 7-thioamide
Cyclosporin A 7-thioamide ([^7ψ^8 CS—NH] cyclosporin A) [cyclosporin 7-thioamide] | does have the hair regrowth effect; also recorded: superior hair regrowth (restoring) effect to any other compounds
Cyclosporin A 4-thioamide [cyclosporin 4-thioamide, reference compound] | not all of those derivatives have hair regrowth effect, but only cyclosporin 7-thioamide
